Like-named read-outs stand apart in the source and are kept apart here.
What was measured:
Assay in all cases: Kinase panel profiling at 1 µmol/L (MSA or IMAP), percentage inhibition
Type in all cases: biochemical
[1] = target: T1, panel of 255 wild-type kinases (Homo sapiens, UniProt O43781); settings: read-out: %-inhibition at 1 µmol/L, DYRK3
T1 sequence (O43781 1-588): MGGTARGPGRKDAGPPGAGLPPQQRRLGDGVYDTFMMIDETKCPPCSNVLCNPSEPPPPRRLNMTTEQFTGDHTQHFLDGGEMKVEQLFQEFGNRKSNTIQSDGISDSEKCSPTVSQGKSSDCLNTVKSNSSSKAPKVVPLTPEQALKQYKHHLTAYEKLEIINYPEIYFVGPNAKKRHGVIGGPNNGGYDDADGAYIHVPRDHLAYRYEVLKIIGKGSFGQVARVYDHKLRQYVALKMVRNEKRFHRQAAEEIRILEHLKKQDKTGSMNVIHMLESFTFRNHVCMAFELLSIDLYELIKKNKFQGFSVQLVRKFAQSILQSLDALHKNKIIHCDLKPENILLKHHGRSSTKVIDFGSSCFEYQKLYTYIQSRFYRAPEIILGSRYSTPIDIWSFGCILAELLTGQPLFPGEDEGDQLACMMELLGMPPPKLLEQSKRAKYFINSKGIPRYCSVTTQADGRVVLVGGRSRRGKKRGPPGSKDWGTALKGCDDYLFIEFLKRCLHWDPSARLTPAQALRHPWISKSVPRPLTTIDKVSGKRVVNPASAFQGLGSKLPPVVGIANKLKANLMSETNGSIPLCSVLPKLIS

[2] = target: panel of 255 wild-type kinases (Homo sapiens, UniProt O60674); settings: read-out: %-inhibition at 1 µmol/L, JAK2
[3] = target: panel of 255 wild-type kinases (Homo sapiens, UniProt P08069); settings: read-out: %-inhibition at 1 µmol/L, IGF1R
[4] = target: panel of 255 wild-type kinases (Homo sapiens, UniProt P11362); settings: read-out: %-inhibition at 1 µmol/L, FGFR1
[5] = target: T2, panel of 255 wild-type kinases (Homo sapiens, UniProt P30530); settings: read-out: %-inhibition AXL
T2 sequence (P30530 26-894): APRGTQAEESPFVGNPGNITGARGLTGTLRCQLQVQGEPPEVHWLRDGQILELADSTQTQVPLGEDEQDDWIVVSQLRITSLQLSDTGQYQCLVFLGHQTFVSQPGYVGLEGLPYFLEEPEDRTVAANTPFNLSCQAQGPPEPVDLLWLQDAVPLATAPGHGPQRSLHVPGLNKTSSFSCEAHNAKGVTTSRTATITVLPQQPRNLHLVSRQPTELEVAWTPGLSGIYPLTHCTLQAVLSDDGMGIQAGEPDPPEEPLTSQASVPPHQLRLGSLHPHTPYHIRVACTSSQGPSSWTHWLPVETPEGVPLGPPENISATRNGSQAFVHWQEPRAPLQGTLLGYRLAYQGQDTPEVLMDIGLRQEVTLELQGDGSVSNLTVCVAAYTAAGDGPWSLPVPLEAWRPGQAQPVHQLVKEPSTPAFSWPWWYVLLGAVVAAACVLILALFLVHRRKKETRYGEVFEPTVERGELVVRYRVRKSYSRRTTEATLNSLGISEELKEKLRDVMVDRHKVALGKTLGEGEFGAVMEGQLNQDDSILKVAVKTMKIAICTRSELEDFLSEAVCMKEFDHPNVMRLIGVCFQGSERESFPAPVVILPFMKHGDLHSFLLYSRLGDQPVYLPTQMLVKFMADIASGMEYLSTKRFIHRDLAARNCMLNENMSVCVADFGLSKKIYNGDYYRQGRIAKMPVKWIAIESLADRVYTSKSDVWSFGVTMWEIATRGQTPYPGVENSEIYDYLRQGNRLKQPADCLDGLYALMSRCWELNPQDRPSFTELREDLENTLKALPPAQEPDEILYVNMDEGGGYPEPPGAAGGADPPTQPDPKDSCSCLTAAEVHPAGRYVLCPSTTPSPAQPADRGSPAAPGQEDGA

[6] = target: T3, panel of 255 wild-type kinases (Homo sapiens, UniProt P43403); settings: read-out: %-inhibition at 1 µmol/L, ZAP70
T3 sequence (P43403 1-619): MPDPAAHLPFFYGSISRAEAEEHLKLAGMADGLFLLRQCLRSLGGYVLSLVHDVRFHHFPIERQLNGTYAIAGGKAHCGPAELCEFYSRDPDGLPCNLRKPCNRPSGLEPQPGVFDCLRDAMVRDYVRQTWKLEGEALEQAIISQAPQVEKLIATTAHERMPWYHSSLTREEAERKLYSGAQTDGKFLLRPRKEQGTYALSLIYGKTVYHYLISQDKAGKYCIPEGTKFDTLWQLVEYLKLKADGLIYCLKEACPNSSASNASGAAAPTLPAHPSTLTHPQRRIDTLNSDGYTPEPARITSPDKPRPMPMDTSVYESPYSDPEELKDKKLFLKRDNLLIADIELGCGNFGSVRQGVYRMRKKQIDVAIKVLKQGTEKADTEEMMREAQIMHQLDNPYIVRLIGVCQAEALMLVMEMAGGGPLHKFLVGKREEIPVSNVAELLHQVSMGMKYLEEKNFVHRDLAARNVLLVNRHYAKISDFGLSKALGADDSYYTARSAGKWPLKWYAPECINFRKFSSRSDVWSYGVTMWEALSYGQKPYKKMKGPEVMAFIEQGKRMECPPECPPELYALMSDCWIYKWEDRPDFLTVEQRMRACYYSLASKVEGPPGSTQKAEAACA

[7] = target: panel of 255 wild-type kinases (Homo sapiens, UniProt P45984); settings: read-out: %-inhibition at 1 µmol/L, JNK2

| Compound | inhibition at 1 µM [1] [%] | inhibition at 1 µM [2] [%] | inhibition at 1 µM [3] [%] | inhibition at 1 µM [4] [%] | inhibition at 1 µM [5] [%] | inhibition at 1 µM [6] [%] | inhibition at 1 µM [7] [%] | inhibition at 1 µM ([1]; kinase DYRK3, 1 µmol/L single concentration) [%] | inhibition at 1 µM ([2]; kinase JAK2, 1 µmol/L single concentration) [%] | inhibition at 1 µM ([3]; kinase IGF1R, 1 µmol/L single concentration) [%] | inhibition at 1 µM ([4]; kinase FGFR1, 1 µmol/L single concentration) [%] | inhibition at 1 µM ([5]; AXL kinase assay, 1 µmol/L single concentration) [%] | inhibition at 1 µM ([6]; kinase ZAP70, 1 µmol/L single concentration) [%] | inhibition at 1 µM ([7]; kinase JNK2, 1 µmol/L single concentration) [%] |
| --- | --- | --- | --- | --- | --- | --- | --- | --- | --- | --- | --- | --- | --- | --- |
| CNC(=O)c1ccc(-c2cnc3ncc(Cc4ccc5ncccc5c4)n3n2)cc1F [capmatinib] | 4.5 | 1.58 | 5.7 | -0.662 | 34 | 4 | -0.668 |  |  |  |  |  |  |  |
| C[C@H](Nc1ncnc2nc[nH]c12)c1cc2cccc(Cl)c2c(=O)n1-c1ccccc1 [duvelisib] |  |  |  |  |  |  |  | -2 | 3.29 | 1.51 | -0.103 | -0.298 | 2 | 2 |
